Laboratory results reported in ChEMBL document CHEMBL1201862, “PubChem BioAssay data set” (2004).
Activity calls are given as the source filed them.

Experiments:
[1] = HIV-1 AD8 envelope cell-cell fusion blockers – cherry-pick, dose response (AID 652062); assay type: functional, cell-based;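 note: luciferase signal from cell-cell fusion driven by HIV-1 clade B AD8 Env; potency is for inhibitors of fusion seen as a drop in luminescence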
[2] = molecular target: T1, Rac GTPase-activating protein 1 (Homo sapiens, UniProt Q9H0H5); experiment: blockers of MgcRacGAP-driven Rac1 GTP hydrolysis – biochemical, ADP Hunter fluorescence, primary and confirmatory, confirmation (AID 624330); assay type: functional
T1 sequence (Q9H0H5 whole entry): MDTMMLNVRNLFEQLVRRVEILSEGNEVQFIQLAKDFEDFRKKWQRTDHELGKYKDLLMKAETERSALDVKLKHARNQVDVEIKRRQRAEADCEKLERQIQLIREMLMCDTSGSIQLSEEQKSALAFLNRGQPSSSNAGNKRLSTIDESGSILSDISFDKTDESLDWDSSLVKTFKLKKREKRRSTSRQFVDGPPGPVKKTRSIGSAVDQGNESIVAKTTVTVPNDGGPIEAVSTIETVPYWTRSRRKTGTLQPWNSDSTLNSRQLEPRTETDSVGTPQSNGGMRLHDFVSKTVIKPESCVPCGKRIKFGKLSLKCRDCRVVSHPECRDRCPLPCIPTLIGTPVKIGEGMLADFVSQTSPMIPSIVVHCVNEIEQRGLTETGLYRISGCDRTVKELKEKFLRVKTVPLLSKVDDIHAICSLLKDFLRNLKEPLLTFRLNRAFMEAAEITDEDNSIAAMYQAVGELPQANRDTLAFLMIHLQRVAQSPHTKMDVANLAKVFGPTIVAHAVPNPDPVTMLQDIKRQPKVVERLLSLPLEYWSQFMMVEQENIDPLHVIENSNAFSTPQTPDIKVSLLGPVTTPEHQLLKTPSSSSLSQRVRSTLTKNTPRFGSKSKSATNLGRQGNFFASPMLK

Cytochrome P450 1A2 = molecular target: T2, Cytochrome P450 1A2 (Homo sapiens, UniProt P05177);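 note: PubChem cytochrome P450 panel assay, CYP1A2 panel member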
T2 sequence (P05177 whole entry): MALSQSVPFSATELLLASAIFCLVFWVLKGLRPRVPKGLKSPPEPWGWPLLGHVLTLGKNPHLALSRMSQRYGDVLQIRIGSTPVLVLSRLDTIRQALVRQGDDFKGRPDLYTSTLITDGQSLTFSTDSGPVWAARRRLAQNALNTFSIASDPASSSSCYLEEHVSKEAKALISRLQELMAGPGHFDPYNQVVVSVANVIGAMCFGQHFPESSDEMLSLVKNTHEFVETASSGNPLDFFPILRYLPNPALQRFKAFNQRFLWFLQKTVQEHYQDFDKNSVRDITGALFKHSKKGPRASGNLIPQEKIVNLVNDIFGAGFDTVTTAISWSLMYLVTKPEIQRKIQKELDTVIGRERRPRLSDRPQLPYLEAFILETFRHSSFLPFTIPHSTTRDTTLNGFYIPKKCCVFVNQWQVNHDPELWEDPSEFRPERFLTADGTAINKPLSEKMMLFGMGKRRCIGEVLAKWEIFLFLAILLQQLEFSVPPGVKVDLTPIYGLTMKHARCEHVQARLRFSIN

Cytochrome P450 2C19 = Cytochrome P450 2C19 (Homo sapiens, UniProt P33261); experiment: Cytochrome panel assay with activity outcomes. Panel member name: p450-cyp2c19 Compounds with AC50 equal or less than 10 uM are considered active; assay type: functional; conditions: read-out: AC50
Cytochrome P450 2C19, sequence (P33261 whole entry): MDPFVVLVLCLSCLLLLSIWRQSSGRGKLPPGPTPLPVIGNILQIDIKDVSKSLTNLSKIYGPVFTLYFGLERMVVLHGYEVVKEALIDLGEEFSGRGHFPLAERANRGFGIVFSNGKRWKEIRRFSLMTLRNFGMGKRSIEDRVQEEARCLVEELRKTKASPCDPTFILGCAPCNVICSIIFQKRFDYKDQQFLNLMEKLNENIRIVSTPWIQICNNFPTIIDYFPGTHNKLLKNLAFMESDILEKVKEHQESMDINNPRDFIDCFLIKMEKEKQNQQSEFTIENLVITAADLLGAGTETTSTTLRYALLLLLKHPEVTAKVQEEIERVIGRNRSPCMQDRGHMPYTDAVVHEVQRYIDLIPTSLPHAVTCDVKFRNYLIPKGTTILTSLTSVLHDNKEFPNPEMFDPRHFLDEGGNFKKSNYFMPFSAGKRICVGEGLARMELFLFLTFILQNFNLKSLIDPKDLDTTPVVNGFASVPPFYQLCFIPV

Cytochrome P450 2C9 = Cytochrome P450 2C9 (Homo sapiens, UniProt P11712)
Cytochrome P450 2C9, sequence (P11712 whole entry): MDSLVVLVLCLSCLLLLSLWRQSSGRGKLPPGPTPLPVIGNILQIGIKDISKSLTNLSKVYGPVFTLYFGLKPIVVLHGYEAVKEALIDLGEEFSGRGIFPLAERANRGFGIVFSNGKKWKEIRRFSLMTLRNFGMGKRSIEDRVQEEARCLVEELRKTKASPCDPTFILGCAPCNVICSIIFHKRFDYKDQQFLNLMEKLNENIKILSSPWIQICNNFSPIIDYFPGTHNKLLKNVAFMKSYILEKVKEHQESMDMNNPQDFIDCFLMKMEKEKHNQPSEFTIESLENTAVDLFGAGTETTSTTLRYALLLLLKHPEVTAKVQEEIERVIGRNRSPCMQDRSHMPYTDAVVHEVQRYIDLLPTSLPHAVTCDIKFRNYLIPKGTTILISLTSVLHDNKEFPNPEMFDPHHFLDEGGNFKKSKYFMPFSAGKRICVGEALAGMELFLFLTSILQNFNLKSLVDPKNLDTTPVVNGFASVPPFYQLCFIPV

[3] = fluconazole-exposed Candida albicans growth modulators – fluorescence, retest, confirmation (AID 2467); assay type: functional, cell-based
[4] = NIH-3T3 fibroblast cytotoxicity, dose response, cytotoxicity control, cell-based, fluorescence, Alamar Blue, secondary assay (AID 2327); assay type: functional;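 note: NIH-3T3 mouse fibroblasts cultured with fluconazole at 8 µg/mL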
cells = assay type: functional
Cytochrome P450 3A4 = Cytochrome P450 3A4 (Homo sapiens, UniProt P08684);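 note: CYP3A4 tested as one member of a cytochrome P450 panel screen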
Cytochrome P450 3A4, sequence (P08684 whole entry): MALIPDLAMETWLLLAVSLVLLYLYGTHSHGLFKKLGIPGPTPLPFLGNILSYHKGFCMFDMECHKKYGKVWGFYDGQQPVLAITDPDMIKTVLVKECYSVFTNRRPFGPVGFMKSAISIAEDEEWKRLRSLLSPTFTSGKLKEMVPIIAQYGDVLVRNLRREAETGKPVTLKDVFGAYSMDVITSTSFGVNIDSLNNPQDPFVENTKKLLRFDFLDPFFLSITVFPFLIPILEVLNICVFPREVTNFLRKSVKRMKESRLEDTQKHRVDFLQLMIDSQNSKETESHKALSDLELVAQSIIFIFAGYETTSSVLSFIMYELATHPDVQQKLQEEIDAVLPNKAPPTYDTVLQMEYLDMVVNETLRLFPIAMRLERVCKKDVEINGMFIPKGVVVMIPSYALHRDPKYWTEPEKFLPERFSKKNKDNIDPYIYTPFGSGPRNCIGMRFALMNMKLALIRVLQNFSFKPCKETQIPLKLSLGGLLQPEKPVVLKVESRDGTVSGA

H9c2 = experiment: cells; assay type: functional, cell-based; conditions: Rattus norvegicus, H9c2, Myocardium;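 note: confirmatory concentration-response retest of ultra-high-throughput screening hits for modulation of myocardial damage; cell death induced by hydrogen peroxide oxidative stress; compound pretreatment for 60 min then peroxide exposure for 2 h; potency is for protecting the cells against peroxide damage rather than for killing them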
[5] = Luminescence Cell-Based Dose Confirmation HTS to Identify Inhibitors of Platelet Dense Granule Release. [Related pubchem assays: 1663 (Primary HTS), 1678 (Summary of Project)]; assay type: functional
[6] = molecular target: Luciferin 4-monooxygenase (Photinus pyralis, UniProt P08659); experiment: inhibition of purified Photinus pyralis luciferase – biochemical, luminescence, dose response (AID 1891)
Luciferin 4-monooxygenase, sequence (P08659 whole entry): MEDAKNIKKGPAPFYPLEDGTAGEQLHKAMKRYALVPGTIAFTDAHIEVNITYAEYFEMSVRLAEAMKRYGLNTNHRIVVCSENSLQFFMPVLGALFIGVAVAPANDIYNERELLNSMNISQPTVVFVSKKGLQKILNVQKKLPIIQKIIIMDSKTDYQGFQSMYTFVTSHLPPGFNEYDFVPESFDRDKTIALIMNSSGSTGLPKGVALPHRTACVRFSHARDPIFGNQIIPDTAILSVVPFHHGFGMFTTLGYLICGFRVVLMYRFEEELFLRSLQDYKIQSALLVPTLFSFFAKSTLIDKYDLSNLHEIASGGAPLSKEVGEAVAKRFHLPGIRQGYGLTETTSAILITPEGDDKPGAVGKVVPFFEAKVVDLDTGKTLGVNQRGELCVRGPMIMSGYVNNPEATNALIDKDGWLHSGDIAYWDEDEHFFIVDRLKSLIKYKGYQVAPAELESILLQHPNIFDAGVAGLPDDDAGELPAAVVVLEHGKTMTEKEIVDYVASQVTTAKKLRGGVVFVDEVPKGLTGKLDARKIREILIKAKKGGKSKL

Cytochrome P450 2D6 = Cytochrome P450 2D6 (Homo sapiens, UniProt P10635);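 note: CYP2D6 member of a cytochrome P450 panel assay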
Cytochrome P450 2D6, sequence (P10635 whole entry): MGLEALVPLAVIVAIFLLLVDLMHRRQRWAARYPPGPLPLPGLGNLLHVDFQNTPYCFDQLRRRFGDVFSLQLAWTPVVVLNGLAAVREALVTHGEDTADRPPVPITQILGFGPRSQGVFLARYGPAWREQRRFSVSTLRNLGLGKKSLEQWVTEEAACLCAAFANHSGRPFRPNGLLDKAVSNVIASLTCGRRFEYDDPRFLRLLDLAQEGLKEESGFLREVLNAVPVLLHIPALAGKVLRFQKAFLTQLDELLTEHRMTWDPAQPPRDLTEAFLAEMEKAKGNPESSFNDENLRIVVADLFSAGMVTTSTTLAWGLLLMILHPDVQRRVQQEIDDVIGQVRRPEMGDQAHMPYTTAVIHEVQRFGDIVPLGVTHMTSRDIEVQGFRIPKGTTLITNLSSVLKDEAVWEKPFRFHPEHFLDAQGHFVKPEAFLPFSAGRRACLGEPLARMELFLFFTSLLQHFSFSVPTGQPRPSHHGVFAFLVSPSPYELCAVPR

Leucine aminopeptidase = molecular target: T3, Leucine aminopeptidase (Plasmodium falciparum 3D7, UniProt Q8IL11); experiment: P. falciparum M17LAP inhibitors, primary screen, biochemical, fluorogenic H-Leu-NHMec substrate, 1536-well (AID 1619); assay type: functional
T3 sequence (Q8IL11 whole entry): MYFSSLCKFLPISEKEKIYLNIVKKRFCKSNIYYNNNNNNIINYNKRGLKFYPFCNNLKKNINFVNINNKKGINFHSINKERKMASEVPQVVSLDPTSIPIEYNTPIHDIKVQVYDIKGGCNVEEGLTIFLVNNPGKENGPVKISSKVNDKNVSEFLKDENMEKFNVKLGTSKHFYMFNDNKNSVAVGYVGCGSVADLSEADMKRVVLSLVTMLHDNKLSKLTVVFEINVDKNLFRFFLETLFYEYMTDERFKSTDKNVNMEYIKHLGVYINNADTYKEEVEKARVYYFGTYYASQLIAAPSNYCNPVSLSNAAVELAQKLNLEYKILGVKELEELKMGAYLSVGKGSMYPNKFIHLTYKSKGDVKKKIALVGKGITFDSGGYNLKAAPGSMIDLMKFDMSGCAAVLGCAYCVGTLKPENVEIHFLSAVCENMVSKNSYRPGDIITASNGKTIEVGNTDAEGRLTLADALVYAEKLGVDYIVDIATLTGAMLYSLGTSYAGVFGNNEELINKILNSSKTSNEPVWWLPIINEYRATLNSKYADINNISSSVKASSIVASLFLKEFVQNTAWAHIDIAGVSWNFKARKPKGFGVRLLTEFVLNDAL

INS1 = experiment: INS-1E survival protection against cytokine death – cell-based, luminescence, retest, dose response (AID 449756); assay type: functional; conditions: Rattus norvegicus;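 note: cell death triggered by IL-1 beta plus TNF-alpha plus IFN-gamma mixture; protective hits raise ATP signal compared with cytokine alone wells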
Protein skinhead-1 = molecular target: T4, Protein skinhead-1 (Caenorhabditis elegans, UniProt P34707); assay type: functional
T4 sequence (P34707 whole entry): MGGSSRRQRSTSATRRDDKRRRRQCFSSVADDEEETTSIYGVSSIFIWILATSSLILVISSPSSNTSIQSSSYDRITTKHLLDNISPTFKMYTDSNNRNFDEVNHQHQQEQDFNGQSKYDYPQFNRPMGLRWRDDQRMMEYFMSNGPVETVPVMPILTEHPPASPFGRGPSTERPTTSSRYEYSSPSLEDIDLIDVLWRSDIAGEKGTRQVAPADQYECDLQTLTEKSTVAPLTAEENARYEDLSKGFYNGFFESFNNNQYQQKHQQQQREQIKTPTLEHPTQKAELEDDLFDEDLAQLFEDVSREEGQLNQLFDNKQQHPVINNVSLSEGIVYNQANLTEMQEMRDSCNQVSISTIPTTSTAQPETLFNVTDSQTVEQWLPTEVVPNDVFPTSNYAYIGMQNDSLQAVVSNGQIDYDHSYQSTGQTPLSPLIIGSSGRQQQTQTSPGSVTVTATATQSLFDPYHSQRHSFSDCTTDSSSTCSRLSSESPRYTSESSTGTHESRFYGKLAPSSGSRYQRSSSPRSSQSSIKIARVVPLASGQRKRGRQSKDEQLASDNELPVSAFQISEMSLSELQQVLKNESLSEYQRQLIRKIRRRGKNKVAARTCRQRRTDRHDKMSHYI

COc1ccc(S(=O)(=O)NC[C@@H]2CC[C@H]3[C@H](CN3Cc3cc(F)ccc3F)O2)cc1
AC50 [1]: 1.21 µM (active)

O=C(c1cccc(F)c1)N1CCN(Cc2cccc(Br)c2)CC1
IC50 [2]: 136 µM (active)

COc1ccc(Sc2nc3ccccc3n3c(C(F)(F)F)nnc23)cc1
AC50 (Cytochrome P450 1A2): 3.16 µM (inconclusive) | AC50 (Cytochrome P450 2C19): 35.5 µM (inconclusive) | AC50 (Cytochrome P450 2C9): inconclusive

CCOC(=O)CC(/C(C)=N\O)c1ccccc1 (stereo not drawn)
EC50 [3]: > 38 µM (not active) | EC50 [4]: > 160 µM (inactive)

CCS(=O)(=O)N1CCC(C(=O)NCc2ccccc2OC)CC1
AC50 (Cytochrome P450 2C9): inconclusive

O=C(NCc1cccs1)c1cc(-c2ccc(O)cc2)on1
IC50 (cells): 45 µM (active)

COc1ccc(S(=O)(=O)N(C)CC(=O)NCc2ccco2)cc1
AC50 (Cytochrome P450 3A4): 15.8 µM (inconclusive) | AC50 (Cytochrome P450 2C9): inconclusive

Cc1ccc(-c2ccc(=O)n(CC(=O)NCCN3CCCCC3C)n2)cc1 (stereo not drawn)
AC50 (Cytochrome P450 3A4): 17.8 µM (inconclusive) | AC50 (Cytochrome P450 2C19): 35.5 µM (inconclusive) | AC50 (Cytochrome P450 2C9): inconclusive

FC(F)(F)c1ccc(/C=N/N2CCN(Cc3cccc4ccccc34)CC2)cc1
AC50 (Cytochrome P450 2C19): 11.2 µM (inconclusive) | AC50 (Cytochrome P450 2C9): inconclusive

O=C(COC(=O)c1ccc([N+](=O)[O-])o1)Nc1ccc(N2CCOCC2)cc1
IC50 (H9c2): > 79 µM (inactive)

O=C(C[C@@H]1C[C@H]2c3cc(NC(=O)C4CCC4)ccc3O[C@H]2[C@H](CO)O1)NCC(F)(F)F
AC50 [1]: 1.7 µM (active)

C[C@H](NC(=O)c1[nH]cnc1C(=O)NCC(=O)OCc1ccccc1)C(=O)OCc1ccccc1
IC50 (H9c2): 19.4 µM (active)

Cc1nn(-c2ccccc2)c(C)c1C(=O)Nc1nnc(-c2ccco2)o1
EC50 [3]: 1.03 µM (active) | EC50 [4]: > 150 µM (inactive)

NC(=O)c1ccc(Nc2nnc(-c3ccc(O)cc3)c3ccccc23)cc1
EC50 [3]: > 38 µM (not active) | IC50 (H9c2): 15 µM (active) | EC50 [4]: > 150 µM (inactive)

COc1ccc(N2CCN(CC(=O)N3c4ccccc4CC3C)CC2)cc1 (stereo not drawn)
IC50 [2]: 79.7 µM (active)

CCOc1ccc(CN(C(=O)c2oc3ccccc3c2C)C2CCS(=O)(=O)C2)cc1 (stereo not drawn)
EC50 [5]: > 112 µM (not active) | AC50 (Cytochrome P450 1A2): 14.1 µM (inconclusive) | EC50 [3]: > 38 µM (not active) | EC50 [6]: 28.3 µM (active) | AC50 (Cytochrome P450 2D6): 14.1 µM (inconclusive) | EC50 [4]: > 160 µM (inconclusive)

CSc1nnc(NC(=O)c2cc3ccccc3oc2=O)s1
IC50 (H9c2): > 79 µM (inactive)

CCCNC(=O)COC(=O)c1cc2c(=O)n3ccccc3nc2s1
IC50 (cells): 39.2 µM (active)

Clc1ccc(Cl)c(OCc2cc(-c3ccccc3Cl)on2)c1
AC50 (Cytochrome P450 1A2): 0.282 µM (inconclusive) | AC50 (Cytochrome P450 2C19): 0.891 µM (inconclusive) | AC50 (Cytochrome P450 2C9): inconclusive

COc1ccc(C(=O)On2c(-c3ccc(Br)cc3)nc3ccccc3c2=O)cc1
EC50 [3]: 1.8 µM (active) | EC50 [4]: 6.36 µM (inconclusive)

CN1C(=O)/C(=C/c2ccco2)S/C1=N/c1cccc(C(=O)O)c1
IC50 (Leucine aminopeptidase): 50.6 µM (active)

COc1ccc(OCCOCCN2CCN(C)CC2)cc1
IC50 [2]: 70.2 µM (active)

Cc1cc(Cl)ccc1NNC(=O)c1c(C)noc1C
EC50 [3]: > 38 µM (not active) | EC50 [4]: 32.7 µM (active)

O=C(Cc1cccs1)N/N=C\c1ccc(O)cc1
IC50 [2]: 39.3 µM (active)

CCC(C)NC(=O)NC(=O)N(C1CCCCC1)S(C)(=O)=O (stereo not drawn)
AC50 (Cytochrome P450 2C19): 17.8 µM (inconclusive) | AC50 (Cytochrome P450 2C9): inconclusive

Cc1ccc(S(=O)(=O)N2CCOCC2)cc1C(=O)Nc1nc(-c2ccccn2)cs1
IC50 (H9c2): 11.3 µM (active) | AC50 (INS1): 2.19 µM (active)

O=C(OCC(=O)N1CCCCC1)c1cc2ccccc2cc1O
IC50 (cells): 5.15 µM (active)

CCOC(=O)Cn1c(=S)[nH]c2c(oc3ccc(Cl)cc32)c1=O
IC50 (Leucine aminopeptidase): 19.5 µM (active)

CSc1nc(Cl)c(C#N)c(-c2ccc(C)cc2)n1
EC50 [3]: 1.55 µM (active) | EC50 [4]: > 150 µM (inconclusive)

O=C(COC(=O)c1cccc(S(=O)(=O)N2CCOCC2)c1)NCc1ccccc1
AC50 [1]: 59.6 µM (active)

Cc1cc(NS(=O)(=O)c2ccc(NC(=O)c3cnc4scc(C)n4c3=O)cc2)nc(C)n1
IC50 (Leucine aminopeptidase): 23.1 µM (active)

COC(=O)c1cc(OC)c(OC)cc1NC(=O)c1ccc(OC)c(OC)c1
IC50 (H9c2): > 79 µM (inactive)

O=S(=O)(Nc1ccc(C(F)(F)F)cc1)c1c[nH]cn1
IC50 (Leucine aminopeptidase): 28.3 µM (active) | IC50 (Protein skinhead-1): > 100 µM (inactive)

Cc1ccc(-n2cc(-c3ccccc3)c3c(N4CCOCC4)ncnc32)cc1
IC50 (H9c2): > 79 µM (inactive)

COc1cc(/C=C(\C#N)C(=O)NCC2CCCO2)c([N+](=O)[O-])cc1OC (stereo not drawn)
AC50 (Cytochrome P450 2C9): inconclusive

COc1ccc(NC2CCCN(C(=O)COc3ccc(Cl)cc3C)C2)cc1OC (stereo not drawn)
IC50 [2]: 110 µM (active)

CC(C)(C)c1ccc(SCC(N)=O)cc1
EC50 [3]: > 38 µM (not active) | EC50 [4]: > 150 µM (inconclusive)

Cc1cc2nnc(SCC(=O)OC(C)C)n2c2ccccc12
AC50 (Cytochrome P450 2C9): inconclusive

CC(C)(C)NC(=O)c1cc(NC(=O)c2cccs2)cc(NC(=O)c2cccs2)c1
IC50 (H9c2): 11.1 µM (active)
